Assay results reported in patent US12415786B2, “Substituted 2-heteroarylaminobenzenes and the salts thereof and their use as herbicidal agents” (Bayer Aktiengesellschaft, priority 2019, dated 2025).

Assays:
Assay type in all cases: in vivo
Agrostis tenuis = assay: Herbicidal early post-emergence action (96-well microtiter plates), AGSTE; details: 1900 g/ha, scored 9 to 12 days after treatment, 100% = plants have died, 0% = like untreated control plants
Outline: (§1)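 Activity was scored by eye 9 to 12 days after treatment (100% = plants dead, 0% = like untreated controls). Spraying used emulsion concentrates at 1900 g/ha in 2200 L/ha water, applied to cotyledon-stage seedlings raised 5 to 7 days in quartz sand in 96-well plates under controlled conditions.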

Poa annua [1] = assay: Herbicidal early post-emergence action (96-well microtiter plates), POAAN; details: 1900 g/ha, scored 9 to 12 days after treatment, 100% = plants have died, 0% = like untreated control plants
Outline: as §1

Poa annua [2] = assay: Herbicidal post-emergence action (greenhouse pots), POAAN; details: 1280 g/ha, visual rating about 3 weeks after treatment vs untreated controls
Excerpt: (§2) In the examples and tables below, the following abbreviations are used: • Undesired Plants/Weeds: • ABUTH: Abutilon theophrasti • AGSTE: Agrostis tenuis • AMARE Amaranthus retroflexus • ECHCG: Echinochloa crus-galli • LOLRI: Lolium rigidum • MATIN: Matricaria inodora • POAAN: Poa annua • SETVI: Setaria viridis • STEME: Stellaria media A. Herbicidal Early Post-Emergence Action Seeds of mono- and dicotyledonous weed plants were placed in plastic pots in sandy loam soil (doubly sown with in each case one species of mono- or dicotyledonous weed plants per pot), covered with soil and cultivated in a greenhouse under controlled growth conditions. 2 to 3 weeks after sowing, the test plants were treated at the one-leaf stage. The compounds of the invention, formulated in the form of wettable powders (WP) or as emulsion concentrates (EC), were applied onto the green parts of the plants as aqueous suspension or emulsion with addition of 0.5% additive at a water application rate of 600 liters per hectare (converted). After the test plants had been kept in the greenhouse under optimum growth conditions for about 3 weeks, the activity of the preparations was rated visually in comparison to untreated controls. For example, 100% activity=the plants have died, 0% activity=like untreated control plants. Tables B1-B8 below show the effects of selected compounds of the general formula (I) according to Table 1 above on various harmful plants and an application rate corresponding to 1280 g/ha, which were obtained by the experimental procedure mentioned above.

Amaranthus retroflexus [3] = assay: Herbicidal post-emergence action (greenhouse pots), AMARE; details: 1280 g/ha, visual rating about 3 weeks after treatment vs untreated controls
Outline: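 Compounds were applied at 1280 g/ha to the green parts of one-leaf-stage greenhouse weeds, using WP/EC formulations in 600 L/ha water plus 0.5% additive. Visual percent activity was scored around 3 weeks later relative to untreated plants, with 100% meaning plant death.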

Stellaria media [4] = assay: Herbicidal post-emergence action (greenhouse pots), STEME; details: 1280 g/ha, visual rating about 3 weeks after treatment vs untreated controls
Excerpt: as §2

Lolium rigidum = assay: Herbicidal pre-emergence action (greenhouse pots), LOLRI; details: 1280 g/ha, visual scoring after about 3 weeks vs untreated controls
Excerpt: (§3) In the examples and tables below, the following abbreviations are used: • Undesired Plants/Weeds: • ABUTH: Abutilon theophrasti • AGSTE: Agrostis tenuis • AMARE Amaranthus retroflexus • ECHCG: Echinochloa crus-galli • LOLRI: Lolium rigidum • MATIN: Matricaria inodora • POAAN: Poa annua • SETVI: Setaria viridis • STEME: Stellaria media A. Herbicidal Early Post-Emergence Action Seeds of mono- and dicotyledonous weed plants were placed in plastic pots in sandy loam soil (doubly sown with one species each of mono- or dicotyledonous weed plants per pot) and covered with soil. The compounds of the invention, formulated in the form of wettable powders (WP) or as emulsion concentrates (EC), were then applied onto the surface of the covering soil as aqueous suspension or emulsion with addition of 0.5% additive at a water application rate of 600 liters per hectare (converted). After the treatment, the pots were placed in a greenhouse and kept under good growth conditions for the test plants. After about 3 weeks, the effect of the preparations was scored visually in comparison with untreated controls as percentages. For example, 100% activity=the plants have died, 0% activity=like untreated control plants. Tables C1-C8 below show the effects of selected compounds of the general formula (I) according to Table 1 above on various harmful plants and an application rate corresponding to 1280 g/ha, which were obtained by the experimental procedure mentioned above.

Poa annua [5] = assay: Herbicidal pre-emergence action (greenhouse pots), POAAN; details: 1280 g/ha, visual scoring after about 3 weeks vs untreated controls
Outline: (§4)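 Pre-emergence soil-surface treatment at 1280 g/ha of wettable-powder or emulsion-concentrate formulations (0.5% additive, 600 L/ha water), applied after sowing in sandy loam pots. Percent activity rated by eye about 3 weeks later in greenhouse relative to untreated plants.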

Setaria viridis [6] = assay: Herbicidal pre-emergence action (greenhouse pots), SETVI; details: 1280 g/ha, visual scoring after about 3 weeks vs untreated controls
Outline: as §4

Amaranthus retroflexus [7] = assay: Herbicidal pre-emergence action (greenhouse pots), AMARE; details: 1280 g/ha, visual scoring after about 3 weeks vs untreated controls
Outline: as §4

Matricaria inodora = assay: Herbicidal pre-emergence action (greenhouse pots), MATIN; details: 1280 g/ha, visual scoring after about 3 weeks vs untreated controls
Excerpt: as §3

Stellaria media [8] = assay: Herbicidal pre-emergence action (greenhouse pots), STEME; details: 1280 g/ha, visual scoring after about 3 weeks vs untreated controls
Outline: as §4

Echinochloa crus-galli [9] = assay: Herbicidal post-emergence action (greenhouse pots), ECHCG; details: 1280 g/ha, rated after about 3 weeks, 100% = plants have died, 0% = like untreated control plants
Excerpt: as §2

Setaria viridis [10] = assay: Herbicidal post-emergence action (greenhouse pots), SETVI; details: 1280 g/ha, rated after about 3 weeks, 100% = plants have died, 0% = like untreated control plants
Excerpt: as §2

Abutilon theophrasti [11] = assay: Herbicidal post-emergence action (greenhouse pots), ABUTH; details: 1280 g/ha, visual rating about 3 weeks after treatment vs untreated controls
Excerpt: as §2

Echinochloa crus-galli [12] = assay: Herbicidal pre-emergence action (greenhouse pots), ECHCG; details: 1280 g/ha, visual scoring after about 3 weeks vs untreated controls
Excerpt: as §3

Abutilon theophrasti [13] = assay: Herbicidal pre-emergence action (greenhouse pots), ABUTH; details: 1280 g/ha, visual scoring after about 3 weeks vs untreated controls
Excerpt: as §3

SMILES	AGSTE (herbicidal activity, scored visually in comparison to untreated controls) (Agrostis tenuis)	POAAN (herbicidal activity, scored visually in comparison to untreated controls) (Poa annua [1])	herbicidal activity POAAN (Poa annua [2])	herbicidal activity AMARE (Amaranthus retroflexus [3])	herbicidal activity STEME (Stellaria media [4])	herbicidal activity LOLRI (Lolium rigidum)	herbicidal activity POAAN (Poa annua [5])	herbicidal activity SETVI (Setaria viridis [6])	herbicidal activity AMARE (Amaranthus retroflexus [7])	herbicidal activity MATIN (Matricaria inodora)	herbicidal activity STEME (Stellaria media [8])	ECHCG (herbicidal activity, rated visually in comparison to untreated controls) (Echinochloa crus-galli [9])	SETVI (herbicidal activity, rated visually in comparison to untreated controls) (Setaria viridis [10])	herbicidal activity ABUTH (Abutilon theophrasti [11])	herbicidal activity ECHCG (Echinochloa crus-galli [12])	herbicidal activity ABUTH (Abutilon theophrasti [13])
N#Cc1cccc(Nc2ncc(F)cn2)c1Oc1ccc(C(F)(F)F)cc1 [Example 1-279]	80%	100%	100%	100%	100%	90%	100%	100%	100%	90%	100%	–	–	–	–	–
N#Cc1cccc(Nc2ncc(Cl)cn2)c1Oc1ccc(F)c(F)c1 [Example 1-291]	100%	100%	100%	100%	100%	100%	100%	100%	100%	100%	100%	100%	100%	100%	90%	–
N#Cc1ccc(Oc2c(C#N)cccc2Nc2ncc(F)cn2)cc1 [Example 1-280]	100%	100%	–	100%	100%	–	100%	100%	100%	100%	100%	–	–	–	100%	100%
N#Cc1ccc(Oc2c(C#N)cccc2Nc2ncc(Cl)cn2)cc1 [Example 1-299]	80%	100%	–	100%	100%	90%	100%	100%	100%	–	100%	–	90%	–	–	–
N#Cc1ccc(Oc2c(C#N)cccc2Nc2ncccn2)cc1 [Example 1-261]	80%	80%	–	100%	–	–	100%	100%	100%	100%	100%	–	–	–	100%	100%
Cc1cnc(Nc2cccc(C#N)c2Oc2ccc(F)cc2)nc1 [Example 1-308]	100%	100%	100%	100%	100%	–	100%	100%	100%	100%	100%	100%	100%	100%	90%	100%
N#Cc1cccc(Nc2ncc(F)cn2)c1Oc1cccc(C(F)(F)F)c1 [Example 1-278]	100%	100%	–	100%	100%	100%	100%	100%	100%	100%	100%	90%	–	90%	–	–
N#Cc1cccc(Nc2ncc(Cl)cn2)c1Oc1ccc(Cl)nc1 [Example 3-56]	100%	100%	100%	100%	100%	–	100%	100%	100%	100%	100%	100%	100%	100%	100%	100%
N#Cc1cccc(Nc2ncc(F)cn2)c1Oc1cccc(Cl)c1 [Example 1-268]	100%	80%	–	90%	–	–	–	–	90%	–	–	–	–	–	–	90%
N#Cc1cccc(Nc2ncc(Cl)cn2)c1Oc1ccc(Cl)cc1F [Example 1-294]	80%	100%	100%	100%	100%	–	100%	100%	100%	–	100%	–	–	–	90%	90%
N#Cc1cccc(Nc2ncccn2)c1Oc1ccc(F)c(F)c1 [Example 1-253]	100%	100%	–	100%	100%	100%	100%	100%	100%	100%	100%	100%	90%	100%	100%	–
